Assay: recombinant UMI read abundance after kanamycin selection (control-corrected) (log10(CPM+1)); higher = more efficient recombination; extreme values may be limits of the assay; sequences stand for … in AGTGCAGAGAAAATCGGCCAGTTTTCTCTGCCTGCAGTCCGCATGCCGTGGGACCCCTTGGGTTCTAACCTGTTGCCTAGATTTATGCAGCGGACTGCCTTTCTCCCAAAGTGATAAACCGG…AGGTTGGTTTCACT; site = the 11-nt donor
How it was run: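 Reported values are log10(CPM+1) from a pooled Escherichia coli screen of donor and donor-binding-loop pairs for the IS621 bridge recombinase. Selection used IPTG (0.07 mM) plus kanamycin, against unselected plating, each in two replicates. Recombinant UMIs were amplified across the donor–target junction, sequenced, converted to CPM, averaged over replicates and scaled by control-derived factors.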
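Also: IS621 bridge recombinase in Escherichia coli cells against a fixed T5 target plasmid.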

| Sequence | recombinant UMI read abundance (log10) |
| --- | --- |
| CATAGCCCATGGACCGGTTTTCCCGGTAATCCGTATTTGAG (site CATAGCCCTCT) | 0.0141 |
| CATATTGCATGGACCGGTTTTCCCGGTAATCCGTATTTGCA (site CATATTGCTTG) | 0 |
| CATATTGCATGGACCGGTTTTCCCGGTAATCCGTATTTGTT (site CATATTGCTAA) | 1.21 |
| CATCACACATGGACCGGTTTTCCCGGTAATCCGTATTTGGT (site CATCACACTAC) | 1.24 |
| CATCGAACATGGACCGGTTTTCCCGGTAATCCGTATTTGAT (site CATCGAACTAT) | 0.616 |
| CATCGAACATGGACCGGTTTTCCCGGTAATCCGTATTTGCT (site CATCGAACTAG) | 2.31 |
| CATCGGACATGGACCGGTTTTCCCGGTAATCCGTATTTGAA (site CATCGGACTTT) | 1.53 |
| CATCGGGCATGGACCGGTTTTCCCGGTAATCCGTATTTGCC (site CATCGGGCTGG) | 1.31 |
| CATCTTGCATGGACCGGTTTTCCCGGTAATCCGTATTTGCG (site CATCTTGCTCG) | 0.00609 |
| CATCTTTCATGGACCGGTTTTCCCGGTAATCCGTATTTGGT (site CATCTTTCTAC) | 0.00559 |
| CATGCGCCATGGACCGGTTTTCCCGGTAATCCGTATTTGTG (site CAAGCGCCTCA) | 0.0274 |
| CATGCGCCATGGACCGGTTTTCCCGGTAATCCGTATTTGTG (site CACGCGCCTCA) | 0.0136 |
| CATGCGCCATGGACCGGTTTTCCCGGTAATCCGTATTTGTG (site CAGGCGCCTCA) | 0.025 |
| CATGCGCCATGGACCGGTTTTCCCGGTAATCCGTATTTGTG (site CATGCGCCTCA) | 0.0238 |
| CATGGCCCATGGACCGGTTTTCCCGGTAATCCGTATTTGTT (site CAAGGCCCTAA) | 0.0112 |
| CATGGCCCATGGACCGGTTTTCCCGGTAATCCGTATTTGTT (site CACGGCCCTAA) | 0.00402 |
| CATGGCCCATGGACCGGTTTTCCCGGTAATCCGTATTTGTT (site CAGGGCCCTAA) | 0.0418 |
| CATGGCCCATGGACCGGTTTTCCCGGTAATCCGTATTTGTT (site CATGGCCCTAA) | 0.00575 |
| CATTAGCCATGGACCGGTTTTCCCGGTAATCCGTATTTGGA (site CATTAGCCTTC) | 0.0164 |
| CATTCCACATGGACCGGTTTTCCCGGTAATCCGTATTTGCA (site CATTCCACTTG) | 1.95 |
| CATTCGACATGGACCGGTTTTCCCGGTAATCCGTATTTGGG (site CAATCGACTCC) | 0.0123 |
| CATTCGACATGGACCGGTTTTCCCGGTAATCCGTATTTGGG (site CACTCGACTCC) | 0.0107 |
| CATTCGACATGGACCGGTTTTCCCGGTAATCCGTATTTGGG (site CAGTCGACTCC) | 0.0114 |
| CATTCGACATGGACCGGTTTTCCCGGTAATCCGTATTTGGG (site CATTCGACTCC) | 0.00677 |
| CATTCTCCATGGACCGGTTTTCCCGGTAATCCGTATTTGAG (site CATTCTCCTCT) | 0.0129 |

| Sequence | recombinant UMI read abundance (log10) |
| --- | --- |
| CATTGAACATGGACCGGTTTTCCCGGTAATCCGTATTTGTT (site CATTGAACTAA) | 0.0984 |
| CATTGCACATGGACCGGTTTTCCCGGTAATCCGTATTTGTT (site CATTGCACTAA) | 0.487 |
| CATTGCTCATGGACCGGTTTTCCCGGTAATCCGTATTTGAA (site CAATGCTCTTT) | 0.335 |
| CATTGCTCATGGACCGGTTTTCCCGGTAATCCGTATTTGAA (site CACTGCTCTTT) | 0.00354 |
| CATTGCTCATGGACCGGTTTTCCCGGTAATCCGTATTTGAA (site CAGTGCTCTTT) | 0.351 |
| CATTGCTCATGGACCGGTTTTCCCGGTAATCCGTATTTGAA (site CATTGCTCTTT) | 1.05 |
| CCAAATTCATGGACCGGTTTTCCCGGTAATCCGTATTTGTT (site CCAAATTCTAA) | 0 |
| CCAACCCCATGGACCGGTTTTCCCGGTAATCCGTATTTGCT (site CCAACCCCTAG) | 0 |
| CCAACGGCATGGACCGGTTTTCCCGGTAATCCGTATTTGCG (site CCAACGGCTCG) | 1.52 |
| CCAACTACATGGACCGGTTTTCCCGGTAATCCGTATTTGAC (site CCAACTACTGT) | 0.998 |
| CCAAGGGCATGGACCGGTTTTCCCGGTAATCCGTATTTGCT (site CCAAGGGCTAG) | 0 |
| CCACCAGCATGGACCGGTTTTCCCGGTAATCCGTATTTGTA (site CCACCAGCTTA) | 1.17 |
| CCACTAACATGGACCGGTTTTCCCGGTAATCCGTATTTGGA (site CAACTAACTTC) | 0.0202 |
| CCACTAACATGGACCGGTTTTCCCGGTAATCCGTATTTGGA (site CCACTAACTTC) | 0.235 |
| CCACTAACATGGACCGGTTTTCCCGGTAATCCGTATTTGGA (site CGACTAACTTC) | 0.0202 |
| CCACTAACATGGACCGGTTTTCCCGGTAATCCGTATTTGGA (site CTACTAACTTC) | 0.0175 |
| CCACTATCATGGACCGGTTTTCCCGGTAATCCGTATTTGAC (site CCACTATCTGT) | 1.02 |
| CCACTATCATGGACCGGTTTTCCCGGTAATCCGTATTTGAC (site CTAGTATCTGT) | 0 |
| CCAGAGACATGGACCGGTTTTCCCGGTAATCCGTATTTGCG (site ACAGAGACTCG) | 0.249 |
| CCAGAGACATGGACCGGTTTTCCCGGTAATCCGTATTTGCG (site CCAGAGACTCG) | 1.76 |
| CCAGAGACATGGACCGGTTTTCCCGGTAATCCGTATTTGCG (site GCAGAGACTCG) | 0.0188 |
| CCAGAGACATGGACCGGTTTTCCCGGTAATCCGTATTTGCG (site TCAGAGACTCG) | 0.381 |
| CCAGCGCCATGGACCGGTTTTCCCGGTAATCCGTATTTGTG (site CAAGCGCCTCA) | 0.0258 |
| CCAGCGCCATGGACCGGTTTTCCCGGTAATCCGTATTTGTG (site CCAGCGCCTCA) | 0.045 |
| CCAGCGCCATGGACCGGTTTTCCCGGTAATCCGTATTTGTG (site CGAGCGCCTCA) | 0.0423 |

| Sequence | recombinant UMI read abundance (log10) |
| --- | --- |
| CCAGCGCCATGGACCGGTTTTCCCGGTAATCCGTATTTGTG (site CTAGCGCCTCA) | 0 |
| CCAGCTGCATGGACCGGTTTTCCCGGTAATCCGTATTTGAT (site CCAGATGCTAT) | 0.00428 |
| CCAGCTGCATGGACCGGTTTTCCCGGTAATCCGTATTTGAT (site CCAGCTGCTAT) | 1.7 |
| CCAGCTGCATGGACCGGTTTTCCCGGTAATCCGTATTTGAT (site CCAGGTGCTAT) | 0.00694 |
| CCAGCTGCATGGACCGGTTTTCCCGGTAATCCGTATTTGAT (site CCAGTTGCTAT) | 0.00911 |
| CCAGGGCCATGGACCGGTTTTCCCGGTAATCCGTATTTGTG (site CCAGGGCCTCA) | 0.00753 |
| CCAGGTCCATGGACCGGTTTTCCCGGTAATCCGTATTTGAT (site CCAGGTACTAT) | 0 |
| CCAGGTCCATGGACCGGTTTTCCCGGTAATCCGTATTTGAT (site CCAGGTCCTAT) | 0.341 |
| CCAGGTCCATGGACCGGTTTTCCCGGTAATCCGTATTTGAT (site CCAGGTGCTAT) | 0 |
| CCAGGTCCATGGACCGGTTTTCCCGGTAATCCGTATTTGAT (site CCAGGTTCTAT) | 0 |
| CCAGGTGCATGGACCGGTTTTCCCGGTAATCCGTATTTGAA (site CCAGGTGCTAT) | 0.00736 |
| CCAGGTGCATGGACCGGTTTTCCCGGTAATCCGTATTTGAA (site CCAGGTGCTCT) | 0.218 |
| CCAGGTGCATGGACCGGTTTTCCCGGTAATCCGTATTTGAA (site CCAGGTGCTGT) | 0 |
| CCAGGTGCATGGACCGGTTTTCCCGGTAATCCGTATTTGAA (site CCAGGTGCTTT) | 1.73 |
| CCAGGTGCATGGACCGGTTTTCCCGGTAATCCGTATTTGAC (site CCAGGTGCTAT) | 0.0299 |
| CCAGGTGCATGGACCGGTTTTCCCGGTAATCCGTATTTGAC (site CCAGGTGCTCT) | 0.00976 |
| CCAGGTGCATGGACCGGTTTTCCCGGTAATCCGTATTTGAC (site CCAGGTGCTGT) | 0.637 |
| CCAGGTGCATGGACCGGTTTTCCCGGTAATCCGTATTTGAC (site CCAGGTGCTTT) | 0.00791 |
| CCAGGTGCATGGACCGGTTTTCCCGGTAATCCGTATTTGGT (site CCAGGTGCTAA) | 0.0181 |
| CCAGGTGCATGGACCGGTTTTCCCGGTAATCCGTATTTGGT (site CCAGGTGCTAC) | 0.188 |
| CCAGGTGCATGGACCGGTTTTCCCGGTAATCCGTATTTGGT (site CCAGGTGCTAG) | 0 |
| CCAGGTGCATGGACCGGTTTTCCCGGTAATCCGTATTTGGT (site CCAGGTGCTAT) | 0.541 |
| CCAGTAGCATGGACCGGTTTTCCCGGTAATCCGTATTTGAC (site CCAGTAGCTGT) | 2.06 |
| CCAGTAGCATGGACCGGTTTTCCCGGTAATCCGTATTTGAC (site CTAGTATCTGT) | 0 |
| CCAGTATCATGGACCGGTTTTCCCGGTAATCCGTATTTGCA (site ACAGTATCTTG) | 1.07 |

From the supplement of paper PMC11208160
